# Measurements reported in the supplement of paper PMC11061612.
# Assays:
# [1] = tested on: SK-LU-1 (Lung Adenocarcinoma); test: Bliss excess, mean over the matrix (fraction); higher = more synergy
# Summary of the method: (§1)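 Cell lines in DMEM/F12 or RPMI with 10% FBS were plated in 1536-well plates, held 24 hours at 37°C, 5% CO2, then given two-drug dose matrices for 72 hours (DMSO typically 0.2%). Viability was read by CellTiter-Glo 2.0 luminescence and scaled as inhibition from 0 (vehicle wells) to 1 (blank wells). Combination Emax is the second-highest inhibition in the matrix; Bliss excess is observed combination effect minus expected EA + EB − EA·EB, EA and EB being single-agent effects.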
# [2] = tested on: SW982 (Other Solid Carcinomas); test: combination Emax (second highest fraction inhibited in the dose matrix, 72 h); higher = more inhibition; extreme values may be limits of the assay
# Summary of the method: as §1
# [3] = tested on: MDA-MB-453 (Breast Carcinoma); test: as above
# Summary of the method: as §1
# COLO-679 (Melanoma) = test: as above
# Summary of the method: as §1
# [4] = tested on: MOG-G-UVW (Low Grade Glioma); test: as above
# Summary of the method: as §1
# SK-N-AS (Neuroblastoma) = test: as above
# Summary of the method: as §1
# [5] = tested on: COLO-668 (Small Cell Lung Carcinoma); test: as above
# Summary of the method: as §1
# [6] = tested on: NCI-H1355 (Lung Adenocarcinoma); test: as above
# Summary of the method: as §1
# [7] = tested on: OE33 (Esophageal Adenocarcinoma); test: as above
# Summary of the method: as §1
# [8] = tested on: HAL-01 (B-Lymphoblastic Leukemia); test: as above
# Summary of the method: as §1
# [9] = tested on: NCI-H1092 (Small Cell Lung Carcinoma); test: Bliss excess, mean over the matrix (fraction); higher = more synergy
# Summary of the method: as §1
# [10] = tested on: NCI-H1838 (Lung Adenocarcinoma); test: as above
# Summary of the method: as §1
# [11] = tested on: CADO-ES1 (Ewing's Sarcoma); test: as above
# Summary of the method: as §1
# [12] = tested on: HCC1500 (Breast Carcinoma); test: as above
# Summary of the method: as §1
# [13] = tested on: HCC2998 (Colorectal Carcinoma); test: as above
# Summary of the method: as §1
# [14] = tested on: NCI-H650 (Lung Adenocarcinoma); test: as above
# Summary of the method: as §1
# [15] = tested on: ALL-SIL (T-Lymphoblastic Leukemia); test: as above
# Summary of the method: as §1
# [16] = tested on: HCC1937 (Breast Carcinoma); test: as above
# Summary of the method: as §1
# [17] = tested on: OACM5-1 (Esophageal Adenocarcinoma); test: as above
# Summary of the method: as §1
# [18] = tested on: EJM (Plasma Cell Myeloma); test: as above
# Summary of the method: as §1
# 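Throughout, for Bliss excess, mean over the matrix: after 72 h of two-drug dosing.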
SMILES,Bliss excess [1],combination Emax [2],combination Emax [3],combination Emax (COLO-679 (Melanoma)),combination Emax [4],combination Emax (SK-N-AS (Neuroblastoma)),combination Emax [5],combination Emax [6],combination Emax [7],combination Emax [8],Bliss excess [9],Bliss excess [10],Bliss excess [11],Bliss excess [12],Bliss excess [13],Bliss excess [14],Bliss excess [15],Bliss excess [16],Bliss excess [17],Bliss excess [18]
"CN(CCO)CC[C@H](CSc1ccccc1)Nc1ccc(S(=O)(=O)NC(=O)c2ccc(N3CCC([C@@H](O)c4ccccc4-c4ccc(Cl)cc4)CC3)cc2)cc1S(=O)(=O)C(F)(F)F [AZD4320] + Nc1ccn([C@@H]2O[C@H](CO)[C@@H](O)C2(F)F)c(=O)n1 [Gemcitabine] (first compound max 1 µM, 7x7, partner max 0.3 µM)",-0.036,1,0.731,0.851,0.821,0.672,0.966,0.406,0.586,1,–,–,–,–,–,–,–,–,–,–
"N#Cc1cnc(Nc2cc(NC[C@H]3CNCCO3)c(C(F)(F)F)cn2)cn1 [SRA737] + C=CCn1c(=O)c2cnc(Nc3ccc(N4CCN(C)CC4)cc3)nc2n1-c1cccc(C(C)(C)O)n1 [AZD1775] (first compound max 10 µM, partner max 1 µM)",0.0096,0.759,0.667,0.806,0.881,0.811,0.748,0.633,0.765,1,–,–,–,–,–,–,–,–,–,–
"CN(CCO)CC[C@H](CSc1ccccc1)Nc1ccc(S(=O)(=O)NC(=O)c2ccc(N3CCC([C@@H](O)c4ccccc4-c4ccc(Cl)cc4)CC3)cc2)cc1S(=O)(=O)C(F)(F)F [AZD4320] + C[C@@H](Nc1cc(F)cc(F)c1)c1cc(C(=O)N(C)C)cc2c(=O)cc(N3CCOCC3)oc12 [AZD8186] (first compound max 1 µM, 7x7, partner max 3 µM)",–,0.928,0.48,0.256,0.727,0.406,0.977,0.34,0.229,0.935,0.0389,0.0139,-0.0003,0.016,-0.0212,0.0081,0.0208,-0.008,0.0343,0.0837
"Cc1cc2ncnn2cc1Nc1ncc2c(n1)n(C1CCOCC1)c(=O)n2C [AZD7648] + CN(C)CCCOc1ccc(-c2ccc3ncc4c(c3c2)n(C2CCOCC2)c(=O)n4C)cn1 [AZD0156] (first compound max 10 µM, 7x7, partner max 1 µM)",–,0.36,0.325,0.2,0.379,0.245,0.133,0.482,0.256,0.398,-0.0312,0.0203,0.0465,0.0414,0.0329,0.0061,0.0467,-0.0129,0.0206,0.072
"CN(CCO)CC[C@H](CSc1ccccc1)Nc1ccc(S(=O)(=O)NC(=O)c2ccc(N3CCC([C@@H](O)c4ccccc4-c4ccc(Cl)cc4)CC3)cc2)cc1S(=O)(=O)C(F)(F)F [AZD4320] + Cn1cnc2c(F)c(Nc3ccc(Br)cc3Cl)c(C(=O)NOCCO)cc21 [Selumetinib] (first compound max 1 µM, 7x7, partner max 3 µM)",–,0.844,0.331,0.834,0.593,0.776,0.989,0.368,0.214,0.916,-0.0193,0.0376,-0.0085,0.0166,0.0449,0.119,-0.0006,-0.0001,0.0624,0.072
"Cc1cc2ncnn2cc1Nc1ncc2c(n1)n(C1CCOCC1)c(=O)n2C [AZD7648] + C=CCn1c(=O)c2cnc(Nc3ccc(N4CCN(C)CC4)cc3)nc2n1-c1cccc(C(C)(C)O)n1 [AZD1775] (first compound max 10 µM, partner max 1 µM)",–,0.825,0.347,0.46,0.779,0.949,0.568,0.672,0.537,0.914,-0.0873,-0.0149,0.0512,0.0414,0.0368,0.0029,0.0133,-0.0069,-0.0206,-0.012
"N#Cc1cnc(Nc2cc(NC[C@H]3CNCCO3)c(C(F)(F)F)cn2)cn1 [SRA737] + O=c1[nH]cc(F)c(=O)[nH]1 [5-Fluorouracil] (first compound max 10 µM, 7x7, partner max 20 µM)",-0.0137,0.679,0.534,0.7,0.558,0.565,0.483,0.517,0.721,1,–,–,–,–,–,–,–,–,–,–
"Cc1cc2ncnn2cc1Nc1ncc2c(n1)n(C1CCOCC1)c(=O)n2C [AZD7648] + C[C@@H]1COCCN1C2=NC(=NC(=C2)C3(CC3)[S@](=N)(=O)C)C4=C5C=CNC5=NC=C4 [AZD6738] (first compound max 10 µM, 7x7, partner max 10 µM)",–,0.73,0.832,0.687,0.795,0.938,0.579,0.661,0.784,0.984,0.0073,-0.0062,0.0364,0.0489,0.0336,0.0048,0.0462,-0.0345,0.0198,0.0308
"Cc1cc2ncnn2cc1Nc1ncc2c(n1)n(C1CCOCC1)c(=O)n2C [AZD7648] + CCN(CCO)CCCOc1ccc2c(Nc3cc(CC(=O)Nc4cccc(F)c4)[nH]n3)ncnc2c1 [AZD2811] (first compound max 10 µM, 7x7, partner max 1 µM)",–,0.621,0.362,0.203,0.686,0.46,0.158,0.519,0.245,0.342,0.0041,-0.0491,0.0236,0.0507,-0.0065,-0.0147,-0.0416,0.0064,-0.0151,0.0417
"COc1cc2c(cc1OCCCCCOc1cc3c(cc1OC)C(=O)N1C=C(C)C[C@H]1C=N3)N=C[C@@H]1CC(C)=CN1C2=O [SG3199] + O=C(c1cc(Cc2n[nH]c(=O)c3ccccc23)ccc1F)N1CCN(C(=O)C2CC2)CC1 [Olaparib] (first compound max 0.001 µM, 7x7, partner max 10 µM)",–,0.43,0.128,0.108,0.307,0.0679,0.163,0.104,0.0504,0.215,-0.0165,-0.0795,0.0008,-0.0144,-0.0099,-0.0206,-0.0316,-0.0623,-0.0313,-0.0198
"CN(CCO)CC[C@H](CSc1ccccc1)Nc1ccc(S(=O)(=O)NC(=O)c2ccc(N3CCC([C@@H](O)c4ccccc4-c4ccc(Cl)cc4)CC3)cc2)cc1S(=O)(=O)C(F)(F)F [AZD4320] + C1CN(CCC1(C(=O)N[C@@H](CCO)C2=CC=C(C=C2)Cl)N)C3=NC=NC4=C3C=CN4 [Capivasertib] (first compound max 1 µM, 7x7, partner max 3 µM)",-0.0558,0.278,0.596,0.0975,0.355,0.172,–,0.239,0.0577,0.761,-0.0476,-0.0392,-0.0387,-0.0178,-0.0128,-0.0252,-0.0464,-0.0881,-0.0272,-0.0272
"CN(CCO)CC[C@H](CSc1ccccc1)Nc1ccc(S(=O)(=O)NC(=O)c2ccc(N3CCC([C@@H](O)c4ccccc4-c4ccc(Cl)cc4)CC3)cc2)cc1S(=O)(=O)C(F)(F)F [AZD4320] + CC(=O)O[C@H]1C(=O)[C@@]2(C)[C@H]([C@H](OC(=O)c3ccccc3)[C@]3(O)C[C@H](OC(=O)[C@H](O)[C@@H](NC(=O)c4ccccc4)c4ccccc4)C(C)=C1C3(C)C)[C@]1(OC(C)=O)CO[C@@H]1C[C@@H]2O [Paclitaxel] (first compound max 1 µM, 7x7, partner max 3 µM)",0.116,1,0.901,0.651,0.993,0.884,0.998,0.984,0.678,0.999,–,–,–,–,–,–,–,–,–,–
"Cc1cc2ncnn2cc1Nc1ncc2c(n1)n(C1CCOCC1)c(=O)n2C [AZD7648] + COc1cc([C@@H]2c3cc4c(cc3[C@@H](O[C@@H]3O[C@@H]5CO[C@@H](C)O[C@H]5[C@H](O)[C@H]3O)[C@H]3COC(=O)[C@H]23)OCO4)cc(OC)c1O [Etoposide] (first compound max 10 µM, 7x7, partner max 10 µM)",0.0201,0.861,0.497,0.588,0.9,0.472,0.862,0.535,0.504,1,–,–,–,–,–,–,–,–,–,–
"N#Cc1cnc(Nc2cc(NC[C@H]3CNCCO3)c(C(F)(F)F)cn2)cn1 [SRA737] + Nc1ccn([C@@H]2O[C@H](CO)[C@@H](O)C2(F)F)c(=O)n1 [Gemcitabine] (first compound max 10 µM, 7x7, partner max 0.3 µM)",-0.101,0.905,0.542,0.828,0.986,0.712,0.84,0.644,0.678,1,–,–,–,–,–,–,–,–,–,–
"N#Cc1cnc(Nc2cc(NC[C@H]3CNCCO3)c(C(F)(F)F)cn2)cn1 [SRA737] + CCc1c2c(nc3ccc(O)cc13)-c1cc3c(c(=O)n1C2)COC(=O)[C@]3(O)CC [SN-38] (first compound max 10 µM, 7x7, partner max 0.3 µM)",-0.0943,0.829,0.719,0.723,0.925,0.763,0.953,0.599,0.8,1,–,–,–,–,–,–,–,–,–,–
